The target in experiment [1] is T1, BCAT2 (Homo sapiens, UniProt O15382).
T1 sequence (O15382 28-392): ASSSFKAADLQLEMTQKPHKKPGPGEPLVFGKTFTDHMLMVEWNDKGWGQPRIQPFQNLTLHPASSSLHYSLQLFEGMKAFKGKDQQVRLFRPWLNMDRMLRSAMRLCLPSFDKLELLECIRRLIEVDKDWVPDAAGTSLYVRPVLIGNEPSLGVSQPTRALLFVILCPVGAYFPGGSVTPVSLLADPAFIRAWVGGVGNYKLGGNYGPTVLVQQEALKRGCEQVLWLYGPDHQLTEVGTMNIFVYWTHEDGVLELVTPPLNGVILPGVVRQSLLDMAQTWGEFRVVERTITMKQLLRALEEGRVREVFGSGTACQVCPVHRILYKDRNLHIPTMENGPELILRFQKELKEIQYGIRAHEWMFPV
Briefly: BCAT2 enzyme inhibition (human). The experiment is classed as biochemical. As to the method:
In further embodiments, the functional modulation of BCAT2 is assayed using a cell-free assay. In various embodiments, the cell-free assay is an enzyme-coupled fluorescent assay. For example, the disclosure contemplates use of an assay that monitors the production of L-glutamate from branch-chain amino acids and α-ketoglutarate through the coupling of hBCATm activity to two additional enzymes, L-Glutamate Oxidase (L-GOx) and Horseradish Peroxidase (HRP). Specifically, L-GOx catabolizes L-glutamate to generate α-ketoglutarate and […], the latter being utilized by HRP and leading to the formation of fluorescent resorufin from the redox-sensitive dye Amplex Red. In some embodiments, the test compound is classified as a candidate compound if a decrease in L-glutamate is measured. In further embodiments, the test compound is classified as a candidate compound if a decrease in α-ketoglutarate is measured.

For experiment [2], the system named is GM00371 cells. Kind of experiment: Viability assay (Cell titer glo) in the 3-HIB assay. The experiment is classed as cell-based, human. Particulars: Homo sapiens, 24 h, read-out: 3HIB INHIBITION IC50 (μM) MEAN GM00371 cells Viablility Assay. As to the method: Cell Plating: Cells (Coriell Institute GM00371 cells) were plated (96-well clear bottom sterile plate; Greiner 655098) at 10,000 cells/0.1 mL in Eagle's minimum essential medium (EMEM)/15% FBS (Gibco 16000-044) with a Combi dispenser in a cell culture hood and incubated at 37° C. and 5% CO2 overnight.
Compound Dilution: Compound were prepared as 33.3× intermediate dilution in DMSO in 96 well round polystyrene plates. For 30 μM final maximum start with 30 μL of 10 mM in DMSO. 10-12 1:3 serial dilutions were prepared from left to right (20 μL+40 μL DMSO). A 10× secondary dilution was prepare in EMEM by taking 7.5 μL 33.3× and transfer to replicate 96 well round polystyrene plates and then adding 242.5 μL EMEM A 1× final dilution in EMEM was prepared by taking 50 μL 10× dilution and transferring to replicate 96 well polypropylene assay block (Costar 3956) and adding 450 μL EMEM A control was prepared for maximal compound inhibition by taking 20 μL 10 mM Reference Compound A and adding 40 μL DMSO for a concentration of 3.3 mM To 7.5 μL of the 3.3 mM Reference Compound A solution and added 242.5 μL EMEM to make a 100 μM solution. The subsequent Reference Compound A solution was diluted with EMEM to achieve a final concentration of 10 μM. The structure of Reference Compound A is:
A control was prepared for maximal compound toxicity by taking 7.5 μL Reference Compound B and 242.5 μL EMEM to make […]. 50 μL of that 100 μM Reference Compound B solution was combined with 450 μL EMEM to achieve a concentration of 30 μM. The structure of Reference Compound B is
Compound Treatment: Media was aspirated from the cells and 100 μL of D-PBS (ThermoFisher 14190144) was added and then removed. 100 μL of diluted compound was added to the cells in the place and the cells were incubated at 37° C. and 5% CO2 for 24 hours.
Viability Assay: To the cells remaining in the plate 25 μL D-PBS and 25 μL Cell titer glo reagent (Promega G7572). The plate was placed on a shaker for 2 minutes, incubated at room temperature in the dark and then read on a Clariostar microplate reader.
For orientation: ATP-based viability assays read luminescence as a measure of living cells.

Experiment [3] concerns the target T2, BCAT1 (Homo sapiens, UniProt P54687).
T2 sequence (P54687 1-386): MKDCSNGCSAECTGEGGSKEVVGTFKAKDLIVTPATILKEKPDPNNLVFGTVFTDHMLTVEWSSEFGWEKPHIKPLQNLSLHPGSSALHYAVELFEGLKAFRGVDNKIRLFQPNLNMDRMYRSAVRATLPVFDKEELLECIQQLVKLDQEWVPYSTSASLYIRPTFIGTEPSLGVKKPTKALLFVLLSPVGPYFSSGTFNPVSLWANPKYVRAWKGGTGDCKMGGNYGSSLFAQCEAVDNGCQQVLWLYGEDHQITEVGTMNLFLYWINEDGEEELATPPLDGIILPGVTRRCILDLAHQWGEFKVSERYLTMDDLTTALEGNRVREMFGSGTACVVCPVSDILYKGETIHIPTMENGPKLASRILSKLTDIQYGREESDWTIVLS
Briefly: BCAT1 enzyme inhibition (human), Glutamate Glo luminescence. The class given is biochemical. Here is the method:
The BCAT1 inhibitory activity of selected compounds of the present disclosure were also evaluated. Compounds were prepared as up to 10 mM stock solutions generally using DMSO as the vehicle. 10-point dose response curves were generated using the Echo-550 (Labcyte) acoustic dispenser. Compound source plates ([…]) were made by serially diluting compound stocks to create 1 mM, 0.1 mM, and 0.01 mM solutions in DMSO into Echo certified LDV plates. The Echo then serially spotted 100% DMSO stock solutions into source dose response plates to generate a semi-log fold dilution scheme. 100% DMSO was added to the spotted dose response plates to bring the final volume to 5 μL, creating a 333× stock plate. 120 nL of the dose response stock plate was then spotted into the assay plate. 10 μL of assay buffer (50 mM Tris with 0.05% TWEEN-20) was then added to the plates resulting in a 4× working concentration in the assay plate. Final assay test concentration range was 3 μM to 0.0001 μM with a final DMSO concentration of 0.3%.
BCAT1 enzyme stock was first diluted to a 4× working concentration of 0.24 μg/mL in assay buffer (final assay concentration is 0.06 ug/ml). 10 μL of the 4×BCAT1 solution was then added to the previously prepared assay plate containing test compound or controls, and incubated at room temperature, protected from light, for either 10 or 60 minutes. After the compound incubation period, 20 μL of assay buffer plus 2× substrate is added to all wells (Final assay concentration of substrates is 300 μM L-leucine and 250 μM alpha-ketoglutaric acid). Enzyme reaction was then incubated for 10 minutes at room temperature. After the 10 minute incubation, the enzymatic reaction was halted with the addition of 5 μL of 0.6N HCl and incubated for 1 min. 5 μL of 1M Tris (pH 8.0) was then added to neutralize pH. 12.5 μL of the quenched assay volume was then transferred to a white, 384 well plate and 12.5 μL of Glutamate detection reagent was added (detection reagent prepared per Promega Glutamate Glo kit instructions). Plates were then incubated for 30 minutes at room temperature, protected from light. After glutamate detection incubation period, luminescence was read on BMG Novostar and relative light units was measured and exported for analysis.
Compound modulation of BCAT1 enzymatic activity was determined as follows. IC50 values were calculated in ActivityBase, using a 4-parameter fit equation. Data was normalized to maximum inhibition form the reference agent VS558CSA (at 10 μM). Relative light units were exported for analysis and % inhibition values for each well were calculated using the following formula: […]

The structures appear in SMILES notation.

What is called IC50 is the midpoint of a concentration-inhibition curve.

For `CNC(=O)c1cc2nc(-c3ccccn3)n(C3COCC(NC(=O)c4ccc(Br)s4)C3)c2cc1F` (centres unmarked) [Compound 234, 1-(5-(5-bromothiophene-2-carboxamido)tetrahydro-2H-pyran-3-yl)-6-fluoro-N-methyl-2-(pyridin-2-yl)-1H-benzo[d]imidazole-5-carboxamide], the IC50 was less than 100 nM in experiment [1], not below 1 µM in experiment [2] and 100 to 500 nM in experiment [3].

As for `O=C(N[C@@H]1CCC[C@H](n2c(-c3ccccc3F)nc3cccnc32)C1)c1ccc(Br)s1` [Compound 285], the results for the IC50 in experiment [1], in experiment [2] and in experiment [3] were less than 100 nM, 0.5 to 1 µM and 500 to 1000 nM, respectively.

For `CNC(=O)c1ccc2c(c1)nc(-c1cccc(F)c1)n2C1CCCN(C(=O)Nc2ccc(Br)s2)C1` (centres unmarked) [Compound 229], the IC50 in experiment [1] was more than 1000 nM; in experiment [3], not below 1000 nM.

Turning to `CNC(=O)c1cc2nc(-c3ccccn3)n([C@H]3CCC[C@@H](NC(=O)c4ccc(Cl)s4)C3)c2cc1Cl` [Compound 235], the IC50 in experiment [1] was 500 to 1000 nM; in experiment [3], not below 1000 nM.

In the case of `CNC(=O)c1cc2nc(-c3ccccn3)n([C@H]3CCC[C@@H](NC(=O)c4ccc(Br)s4)C3)c2cc1Cl` [Compound 238], the half-inhibitory concentration (IC50) in experiment [1] was 100 to 500 nM; in experiment [3], not below 1000 nM.

As for `CNC(=O)c1ccc2c(c1)nc(-c1c(O)ccc(F)c1F)n2[C@H]1CCC[C@@H](NC(=O)c2ccc(Br)s2)C1` [Compound 180], the results for the IC50 in experiment [1] and in experiment [3] were less than 100 nM and 500 to 1000 nM, respectively.

Turning to `O=C(N[C@@H]1CCC[C@H](n2c(-c3ccccn3)nc3cnc(F)cc32)C1)c1ccc(Cl)s1` [Compound 288], the IC50 in experiment [1] was 100 to 500 nM; in experiment [3] it was not below 1000 nM.

`CCCNC(=O)c1ccc2c(c1)nc(-c1ccccn1)n2[C@@H]1CCC[C@H](NC(=O)c2ccc(Br)s2)C1` [Compound 204]: the 50% inhibitory concentration (IC50) is 100 to 500 nM in experiment [1] and not below 1000 nM in experiment [3].

In the case of `CNC(=O)c1cc2nc(-c3ncccc3F)n([C@H]3CCC[C@@H](NC(=O)c4ccc(Br)s4)C3)c2cc1Cl` [Compound 237], the IC50 is 100 to 500 nM in experiment [1] and not below 1000 nM in experiment [3].

Turning to `CNC(=O)c1ccc2c(c1)nc(-c1ccc(O)cn1)n2[C@H]1CCC[C@@H](NC(=O)c2ccc(C#N)s2)C1` [Compound 173], the IC50 is more than 1000 nM in experiment [1] and not below 1000 nM in experiment [3].

As for `O=C(N[C@@H]1CCC[C@H](n2c(-c3ncccc3F)nc3ccncc32)C1)c1ccc(Br)s1` [Compound 298], the IC50 in experiment [1] is less than 100 nM; in experiment [3], 500 to 1000 nM.

For the molecule `O=C(N[C@@H]1CCC[C@H](n2c(-c3ccccn3)nc3cnc(F)cc32)C1)c1ccc(Br)s1` [Compound 302], the IC50 is less than 100 nM in experiment [1] and 500 to 1000 nM in experiment [3].

Take `N#Cc1ccc2c(c1)nc(-c1ccccn1)n2[C@H]1CCC[C@@H](NC(=O)c2ccc(Br)s2)C1` [Compound 194]: the IC50 in experiment [1] is less than 100 nM; in experiment [3], not below 1000 nM.

Consider `CNC(=O)c1ccc2c(c1)nc(-c1ccccn1)n2[C@H]1CCC[C@@H](NC(=O)c2sc(Br)cc2F)C1` [Compound 241], for which the IC50 in experiment [1] is less than 100 nM; in experiment [3], not below 1000 nM.

As to `N#Cc1cc2nc(-c3ccccc3C#N)n(C3CCCC(NC(=O)c4ccc(Br)s4)C3)c2cn1` (centres unmarked) [Compound 306], the IC50 is less than 100 nM in experiment [1] and not below 1000 nM in experiment [3].

On to `CNC(=O)c1ccc2c(c1)nc(-c1cccc(F)c1)n2C1CCCN(C(=O)Nc2cccs2)C1` (centres unmarked) [Compound 228], for which the values for the IC50 in experiment [1] and in experiment [3] were more than 1000 nM and not below 1000 nM, respectively.

Turning to `CNC(=O)c1ccc2c(c1)nc(-c1ccccn1)n2[C@H]1CCC[C@@H](NC(=O)c2sc(Cl)cc2Cl)C1` [Compound 242], the IC50 is more than 1000 nM in experiment [1] and not below 1000 nM in experiment [3].

Consider `CNC(=O)c1cc2nc(-c3ncccc3F)n([C@H]3CCC[C@@H](NC(=O)c4ccc(Cl)s4)C3)c2cc1Cl` [Compound 236], for which the IC50 in experiment [1] was 100 to 500 nM; in experiment [3], not below 1000 nM.

As to `CNC(=O)c1ccc2c(c1)nc(-c1ccccn1)n2C1CCCN(C(=O)Nc2cccc(Cl)c2)C1` (centres unmarked) [Compound 217], the IC50 in experiment [1] is more than 1000 nM; in experiment [3] it was not below 1000 nM.

With `CNC(=O)c1ccc2c(c1)nc(-c1ccccn1)n2[C@H]1CCC[C@@H](NC(=O)c2sc(Cl)cc2OC)C1` [Compound 243], the values for the IC50 in experiment [1] and in experiment [3] were 100 to 500 nM and not below 1000 nM, respectively.

Consider `CNC(=O)c1cc2nc(-c3c(F)ccc(F)c3O)n([C@H]3CCC[C@@H](NC(=O)c4ccc(C#N)s4)C3)c2cc1F` [Compound 232], for which the half-maximal inhibitory concentration (IC50) was less than 100 nM in experiment [1] and not below 1000 nM in experiment [3].

In the case of `CNC(=O)c1cc2nc(-c3c(F)ccc(F)c3O)n([C@H]3CCC[C@@H](NC(=O)c4ccc(Cl)s4)C3)c2cc1F` [Compound 231], the results for the IC50 in experiment [1] and in experiment [3] were less than 100 nM and not below 1000 nM, respectively.

With `CNC(=O)c1ccn2c(C3CCCC(NC(=O)c4ccc(Br)s4)C3)c(-c3ccccc3)nc2c1` (centres unmarked) [Compound 303], the IC50 is 100 to 500 nM in experiment [1] and not below 1000 nM in experiment [3].

On to `CNC(=O)c1ccc2c(c1)nc(-c1ncccn1)n2[C@H]1CCC[C@@H](NC(=O)c2ccc(Br)s2)C1` [Compound 147], for which the IC50 in experiment [1] is less than 100 nM; in experiment [3] it was not below 1000 nM.

The values above are taken from patent publication US20220274967A1, “BCAT MODULATION” (Icagen, LLC, priority 2019, published 2022).
